Data set [1] addresses Sodium-dependent dopamine transporter (Homo sapiens, UniProt Q01959).
In data set [2] the target is Sodium-dependent serotonin transporter (Homo sapiens, UniProt P31645).
Data set [3] deals with Sodium-dependent noradrenaline transporter (Homo sapiens, UniProt P23975).
Data set [4] in a line: Lipophilicity, Log D of the compound. The settings on record: octanol/water. Type of data set: physicochemical.
Data set [5] in a line: Renal clearance in human. Type of data set: ADME, organism-based, Kidney. The settings on record: in vivo, read-out: CL_renal.
The nature of data set [6]: Partition coefficient, log P of the compound. Type of data set: physicochemical. The settings on record: octanol/water.
Data set [7] in a line: Metabolic stability in human liver microsomes assessed as systemic clearance. Type of data set: ADME, Microsome. On the technique in general: Liver microsomes are vesicles of endoplasmic reticulum, rich in cytochrome P450 enzymes.
Data set [8] is described as follows: Elimination half life in human. Type of data set: ADME, organism-based. The settings on record: in vivo.
The next data set in a line: clinical. The following applies: human, in vivo, po.
Data set [9] can be described thus: Apparent permeability across human Caco-2 cells. Type of data set: ADME, cell-based. A general note: Caco-2 monolayers are a common model of the intestinal barrier.

Sequence of Sodium-dependent serotonin transporter (P31645 whole entry): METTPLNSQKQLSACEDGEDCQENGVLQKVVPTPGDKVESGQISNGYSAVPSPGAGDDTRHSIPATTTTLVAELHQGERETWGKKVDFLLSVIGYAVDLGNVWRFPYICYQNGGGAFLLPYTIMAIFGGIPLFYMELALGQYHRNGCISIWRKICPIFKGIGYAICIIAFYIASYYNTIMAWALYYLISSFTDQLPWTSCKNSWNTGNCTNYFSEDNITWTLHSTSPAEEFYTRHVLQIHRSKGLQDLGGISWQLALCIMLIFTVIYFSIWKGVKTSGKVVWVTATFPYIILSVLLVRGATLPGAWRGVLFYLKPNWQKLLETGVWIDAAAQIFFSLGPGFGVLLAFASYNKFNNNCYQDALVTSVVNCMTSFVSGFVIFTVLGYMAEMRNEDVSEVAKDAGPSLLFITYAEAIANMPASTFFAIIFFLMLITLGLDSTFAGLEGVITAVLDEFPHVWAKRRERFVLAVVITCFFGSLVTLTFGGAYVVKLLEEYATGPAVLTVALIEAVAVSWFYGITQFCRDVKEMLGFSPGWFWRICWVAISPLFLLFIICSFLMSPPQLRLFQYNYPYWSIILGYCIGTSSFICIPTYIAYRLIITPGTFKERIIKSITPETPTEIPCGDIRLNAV
Sequence of Sodium-dependent noradrenaline transporter (P23975 whole entry): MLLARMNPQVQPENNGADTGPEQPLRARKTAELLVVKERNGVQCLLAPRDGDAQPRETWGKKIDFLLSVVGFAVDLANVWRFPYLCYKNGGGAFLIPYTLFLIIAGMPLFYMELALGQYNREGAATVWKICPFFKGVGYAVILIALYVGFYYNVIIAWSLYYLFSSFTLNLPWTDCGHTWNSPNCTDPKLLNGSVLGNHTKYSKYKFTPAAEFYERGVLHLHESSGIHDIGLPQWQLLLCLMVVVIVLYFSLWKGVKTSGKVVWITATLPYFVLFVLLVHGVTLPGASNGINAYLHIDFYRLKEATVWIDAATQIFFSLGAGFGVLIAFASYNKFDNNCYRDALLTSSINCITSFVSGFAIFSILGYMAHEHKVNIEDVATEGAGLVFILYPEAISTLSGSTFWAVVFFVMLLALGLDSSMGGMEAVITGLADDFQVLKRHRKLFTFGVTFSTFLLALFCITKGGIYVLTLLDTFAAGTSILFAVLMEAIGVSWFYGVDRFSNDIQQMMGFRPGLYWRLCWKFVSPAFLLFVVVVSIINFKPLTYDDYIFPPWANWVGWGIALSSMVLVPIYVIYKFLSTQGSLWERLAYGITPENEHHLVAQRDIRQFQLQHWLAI
Sequence of Sodium-dependent dopamine transporter (Q01959 whole entry): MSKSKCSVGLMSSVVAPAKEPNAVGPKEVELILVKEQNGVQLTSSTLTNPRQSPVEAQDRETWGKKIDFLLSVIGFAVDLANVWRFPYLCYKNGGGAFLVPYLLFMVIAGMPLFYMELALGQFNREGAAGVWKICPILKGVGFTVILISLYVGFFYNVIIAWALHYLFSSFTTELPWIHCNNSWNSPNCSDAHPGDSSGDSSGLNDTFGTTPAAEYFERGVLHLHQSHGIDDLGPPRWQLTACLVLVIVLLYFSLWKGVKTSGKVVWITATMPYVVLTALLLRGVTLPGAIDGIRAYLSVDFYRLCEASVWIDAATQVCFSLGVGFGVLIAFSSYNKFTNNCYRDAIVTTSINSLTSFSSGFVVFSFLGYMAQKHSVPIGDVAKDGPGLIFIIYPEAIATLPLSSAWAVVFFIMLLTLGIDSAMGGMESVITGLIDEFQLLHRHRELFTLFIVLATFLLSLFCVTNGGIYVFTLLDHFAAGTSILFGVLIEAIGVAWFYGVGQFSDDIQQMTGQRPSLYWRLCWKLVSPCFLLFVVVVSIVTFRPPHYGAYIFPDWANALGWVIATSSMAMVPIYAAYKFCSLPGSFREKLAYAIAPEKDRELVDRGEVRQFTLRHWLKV
Description for clinical: Oral bioavailability in human
Description for physchem: Dissociation constant, pKa of the compound

For `C#CCN(C(=O)[C@@]1(c2ccc3c(c2)OCCO3)C[C@H]1CN)C1CC1`, the results for the IC50 in data set [1], in [2] and in data set [3] were more than 10000 nM, 160 nM and 4.4 nM, respectively.
With `C#CCN(CC)C(=O)[C@@]1(c2ccc3c(c2)OCCO3)C[C@H]1CN`, the IC50 was more than 10000 nM in data set [1], 125 nM in [2] and 5.9 nM in data set [3].
Consider `C=CCN(CC)C(=O)C1(c2ccccc2)C(CN)C1c1ccccc1` (racemic), for which the IC50 was more than 10000 nM in data set [1], 3400 nM in data set [2] and more than 10000 nM in data set [3].
`CCN(CC)C(=O)[C@@]1(c2ccc3sccc3c2)C[C@H]1CN`: the IC50 turned out to be 1300 nM in [1], 1100 nM in data set [2] and 47 nM in [3].
As for `CCN(CC)C(=O)[C@@]1(c2ccc3occc3c2)C[C@H]1CN`, the IC50 in data set [1] is more than 10000 nM; in data set [2] it was 280 nM; in data set [3], 47 nM.
As for `NCC1C(c2ccccc2)C1(C(=O)N1CCc2ccccc21)c1ccccc1` (racemic), the half-maximal inhibitory concentration (IC50) in data set [1] is 4300 nM; in data set [2], 560 nM; in [3], more than 10000 nM.
Turning to `NC[C@@H]1C[C@@]1(C(=O)C1NCc2ccccc21)c1ccc2c(c1)OCO2` (stereo partly drawn), the values for the IC50 in data set [1], in [2] and in data set [3] were 3600 nM, 77 nM and 20 nM, respectively.
`C=CCN(CC)C(=O)C1(c2ccccc2)C(CN)C1(C)C` (racemic): the IC50 is more than 10000 nM in [1], more than 10000 nM in data set [2] and 6400 nM in data set [3].
On to `NC[C@@H]1C[C@@]1(C(=O)N1CCc2sccc2C1)c1ccc2c(c1)OCO2`, for which the IC50 is more than 10000 nM in [1], 14 nM in [2] and 9.4 nM in data set [3].
The matching figures for `CCN(CC)C(=O)C1(c2ccccc2)C(CN)C1c1ccccc1` (racemic): more than 10000 nM, 6400 nM and more than 10000 nM.
The matching figures for `C#CCN(CC(=C)F)C(=O)[C@@]1(c2ccc3c(c2)OCCO3)C[C@H]1CN`: more than 10000 nM, 54 nM and 4 nM.
`CCN(CC)C(=O)C1(c2ccccc2)CC1CN` (racemic) had a logD in data set [4] of 0. Besides, the CL renal in data set [5] was 350 mL/min.
Turning to `C=CCN(CC(=C)F)C(=O)[C@@]1(c2ccc3c(c2)OCCO3)C[C@H]1CN`, the IC50 in [1] is 2900 nM; in [2] it was 39 nM; in [3], 3.2 nM.
`C=C(F)CN(CC)C(=O)[C@@]1(c2ccc3c(c2)OCCO3)C[C@H]1CN`: the IC50 in data set [1] was more than 10000 nM; in [2], 112 nM; in data set [3] it was 5.2 nM.
The matching figures for `CCN(CC)C(=O)C1(c2ccccc2)CC1(C)CN` (racemic): more than 10000 nM, 6900 nM and more than 10000 nM.
The corresponding values for `CC1(C)C(CN)C1(C(=O)N1CCc2ccccc21)c1ccccc1` (racemic) are more than 10000 nM, more than 10000 nM and more than 10000 nM.
Take `C=CCN(CC)C(=O)[C@@]1(c2ccc3c(c2)CCO3)C[C@H]1CN`: the figures for the IC50 in data set [1], in [2] and in [3] were more than 10000 nM, 430 nM and 18 nM, respectively.
Consider `CCN(CC)C(=O)[C@@]1(c2cccc(F)c2)C[C@H]1CN`, for which the IC50 was more than 10000 nM in data set [1], 370 nM in [2] and 73 nM in [3].
The molecule `CNCC[C@@H](Oc1ccccc1C)c1ccccc1` [ATOMOXETINE] came in with a log distribution coefficient (logD) in data set [4] of 0.8. Besides, the logP in data set [6] is 3.5. Moreover, the CLhep predicted in [7] was 14.3 mL/min/kg. The molecule also showed a half-life in [8] of 8 h. Moreover, the bioavailability in the data set “clinical” worked out at 85%.
Regarding `CC#CCN(CCC)C(=O)[C@@]1(c2ccc3c(c2)CCO3)C[C@H]1CN`, the IC50 in data set [1] is more than 10000 nM; in [2] it was 460 nM; in [3], 80 nM.
The corresponding values for `C=CCN(CC#CC)C(=O)[C@@]1(c2ccc3c(c2)OCO3)C[C@H]1CN` are more than 10000 nM, 64 nM and 15 nM.
The corresponding values for `C#CCN(CC=C)C(=O)[C@@]1(c2ccc3c(c2)CCO3)C[C@H]1CN` are more than 10000 nM, 130 nM and 14 nM.
Regarding `C=CCN(CC=C)C(=O)[C@@]1(c2ccc3c(c2)OCCO3)C[C@H]1CN`, the IC50 in data set [1] was 6300 nM; in data set [2] it was 32 nM; in data set [3] it was 3.5 nM. Further, in data set [7], the CLhep predicted was 8.1 mL/min/kg.
Take `CCN(CC)C(=O)C1(c2ccccc2)C(CN)C1(C)C` (racemic): the IC50 in [1] was 4500 nM; in data set [2] it was more than 10000 nM; in [3], more than 10000 nM.
On to `C#CCN(CC#C)C(=O)[C@@]1(c2ccc3c(c2)OCO3)C[C@H]1CN`, for which the results for the IC50 in [1], in data set [2] and in [3] were 4300 nM, 49 nM and 7.6 nM, respectively.
As for `CCN(CC)C(=O)[C@@]1(c2ccc3c(c2)CCO3)C[C@H]1CN`, the values for the IC50 in [1], in [2] and in [3] were more than 10000 nM, 2100 nM and 160 nM, respectively.
Regarding `CCN(CC)C(=O)[C@@]1(c2ccccc2)C[C@H]1CN` [LEVOMILNACIPRAN], the logD in data set [4] was -0.2. In addition, in [6], the logP was 1.6. Moreover, the CLhep predicted in [7] is 5 mL/min/kg.
Take `NC[C@@H]1C[C@@]1(C(=O)N1CCc2ccccc21)c1ccc2c(c1)OCO2`: the IC50 amounted to 640 nM in data set [1], 28 nM in data set [2] and 4.2 nM in [3].
`NC[C@@H]1C[C@@]1(C(=O)N1CCc2ccccc2C1)c1ccc2c(c1)OCO2`: the IC50 in data set [1] worked out at 3600 nM; in [2], 26 nM; in [3], 6.5 nM.
For `C=CCN(CC)C(=O)[C@@]1(c2ccc3c(c2)OCCO3)C[C@H]1CN`, the results for the concentration for half-maximal inhibition (IC50) in data set [1], in data set [2] and in [3] were more than 10000 nM, 65 nM and 2.9 nM, respectively. In [7], the CLhep predicted was 8.8 mL/min/kg.
With `C=CCN(CC=C)C(=O)[C@@]1(c2ccc3c(c2)CCO3)C[C@H]1CN`, the IC50 in [1] was more than 10000 nM; in data set [2], 270 nM; in [3], 4.5 nM.
For the molecule `C#CCN(CC#C)C(=O)[C@@]1(c2ccc3c(c2)CCO3)C[C@H]1CN`, the IC50 in data set [1] was more than 10000 nM; in data set [2], 145 nM; in data set [3], 17 nM.
For `C=C(F)CN(C)C(=O)[C@@]1(c2ccc3c(c2)OCCO3)C[C@H]1CN`, the IC50 in [1] is more than 10000 nM; in data set [2], 100 nM; in data set [3], 8.1 nM.
For the molecule `C#CCN(CC#C)C(=O)[C@@]1(c2ccc3c(c2)OCCO3)C[C@H]1CN`, the IC50 in data set [1] is more than 10000 nM; in [2], 25 nM; in [3], 1.7 nM. Besides, the CLhep predicted in data set [7] is 7.9 mL/min/kg. In addition, the apparent permeability (Papp) in data set [9] worked out at 5.2 ×10⁻⁶ cm/s.
Regarding `C#CCN(CC1CC1)C(=O)[C@@]1(c2ccc3c(c2)OCCO3)C[C@H]1CN`, the IC50 in data set [1] was more than 10000 nM; in data set [2] it was 210 nM; in data set [3], 3.9 nM.
Consider `CCN(CC)C(=O)[C@@]1(c2ccc3c(c2)CCC3)C[C@H]1CN`, for which the values for the IC50 in [1], in data set [2] and in data set [3] were more than 10000 nM, 480 nM and 160 nM, respectively.
The matching figures for `C=CCN(CC#CC)C(=O)[C@@]1(c2ccc3c(c2)CCO3)C[C@H]1CN`: more than 10000 nM, 210 nM and 40 nM.
For `CCN(CC)C(=O)[C@@]1(c2ccc3c(c2)OCO3)C[C@H]1CN`, the figures for the half-inhibitory concentration (IC50) in data set [1], in [2] and in data set [3] were more than 10000 nM, 480 nM and 12 nM, respectively. In [4], this molecule showed a logD of 0.4. In [6], this molecule had a lipophilicity (logP) of 1.7. The molecule further yielded a pKa in “physchem” of 9.6. The CLhep predicted in [7] is 7.9 mL/min/kg. Moreover, in data set [9], the Papp came out at 4.7 ×10⁻⁶ cm/s.
For `CCN(CC1CC1)C(=O)[C@@]1(c2ccc3c(c2)OCCO3)C[C@H]1CN`, the IC50 in [1] was more than 10000 nM; in [2] it was 540 nM; in [3], 7.1 nM.
The matching figures for `C=CCN(CC)C(=O)[C@@]1(c2ccc3c(c2)OCO3)C[C@H]1CN`: more than 10000 nM, 150 nM and 7.1 nM.
Consider `C=CCN(CC=C)C(=O)[C@@]1(c2ccc3c(c2)OCO3)C[C@H]1CN`, for which the results for the half-inhibitory concentration (IC50) in data set [1], in data set [2] and in data set [3] were more than 10000 nM, 58 nM and 7 nM, respectively.
The corresponding values for `NC[C@@H]1C[C@@]1(C(=O)N1CCOc2ccccc21)c1ccc2c(c1)OCO2` are 5100 nM, 320 nM and 5.8 nM.
For `CCN(CC)C(=O)[C@@]1(c2ccc3c(c2)OCCO3)C[C@H]1CN`, the IC50 is more than 10000 nM in [1], 140 nM in [2] and 6.3 nM in [3]. For the same molecule, in data set [7], the CLhep predicted was 4.4 mL/min/kg.
Take `C=CCN(CCC)C(=O)[C@@]1(c2ccc3c(c2)CCO3)C[C@H]1CN`: the IC50 in data set [1] was more than 10000 nM; in data set [2] it was 1700 nM; in data set [3], 21 nM.

By IC50 is commonly meant the concentration at which inhibition is half-maximal. Read a low IC50 as higher potency. As usually defined, the logD is the decadic logarithm of the distribution of all forms, ionised or not, between an organic phase and buffer at a given pH. Read a low logD as a more hydrophilic compound. By logP is commonly meant a log measure of how a compound divides between an organic and an aqueous phase. A higher logP goes with a more lipophilic compound. The half-life is how long it takes for the measured level to halve. A word on the bioavailability: it is dose-corrected exposure relative to a reference, in per cent. The low end stands for poor availability, the high end for good availability. One may read the Papp as the rate of passage across a membrane or cell layer, normalised by area and donor concentration. In general, pKa refers to the negative logarithm of the acid dissociation constant. A lower pKa goes with a group that gives up its proton readily.

The values above are taken from ChEMBL document CHEMBL1143081, “Identification of 1S,2R-milnacipran analogs as potent norepinephrine and serotonin transporter inhibitors” (Bioorg Med Chem Lett, 2008).
